In US20150119378A1, “AZETIDINYLOXY-, PYRROLIDINYLOXY-, AND PIPERIDINYLOXY-SUBSTITUTED METANICOTINES AS NEURONAL NICOTINIC ACETYLCHOLINE RECEPTOR LIGANDS” (priority 2013, published 2015):
Where two headings read alike, the source gives them in different places.

Columns and labels:
[1] = target: T1, Human α4β2 (Homo sapiens, UniProt P17787+P43681); assay: Competition binding to receptors in membrane preparations, human α4β2 ([3H]-nicotine)
T1 construct: expressed in transfected cells; obtained from Dr. Ron Lukas, Barrow Neurological Institute
Procedure: (§1) SH-EP1/human α4β2 (Eaton et al., 2003), SH-EP1/human α4β4 (Gentry et al., 2003), SH-EP1/α6β3β4α5 (Grinevich et al., 2005), TE671/RD and SH-SY5Y cell lines (obtained from Dr. Ron Lukas, Barrow Neurological Institute) were maintained in proliferative growth phase in Dulbecco's modified Eagle's medium (Gibco/BRL) with 10% horse serum (Gibco BRL), 5% fetal bovine serum (HyClone, Logan Utah), 1 mM sodium pyruvate, 4 mM L-glutamine. For maintenance of stable transfectants, the α4β2 and α4β4 cell media was supplemented with 0.25 mg/mL zeocin and 0.13 mg/mL hygromycin B. Selection was maintained for the α6β3β4α5 cells with 0.25 mg/mL of zeocin, 0.13 mg/mL of hygromycin B, 0.4 mg/mL of geneticin, and 0.2 mg/mL of blasticidin. HEK/human α7/RIC3 cells (obtained from J. Lindstrom, U. Pennsylvania) were maintained in proliferative growth phase in Dulbecco's modified Eagle's medium (Gibco/BRL) with 10% fetal bovine serum (HyClone, Logan Utah), 1 mM sodium pyruvate, 4 mM L-glutamine, 0.4 mg/mL geneticin; 0.2 mg/ml hygromycin B.
(§2) Cells were harvested in ice-cold PBS, pH 7.4, then homogenized with a polytron (Brinkmann Instruments, Westbury, N.Y.). Homongenates were centrifuged at 40,000 g for 20 minutes (4° C.). The pellet was resuspended in PBS and protein concentration determined using the Pierce BCA Protein Assay kit (Pierce Biotechnology, Rockford, Ill.).
(§3) Binding to nicotinic receptors was assayed on membranes using standard methods adapted from published procedures (Lippiello and Fernandes, 1986; Davies et al., 1999). In brief, membranes were reconstituted from frozen stocks (approximately 0.2 mg protein) and incubated for 2 h on ice in […] assay buffer (PBS) in the presence of competitor compound (0.001 nM to […]) and radioligand. [^3H]-nicotine (L-(−)-[N-methyl-3H]-nicotine, 69.5 Ci/mmol, Perkin-Elmer Life Sciences) was used for human α4β2 binding studies. [^3H]-epibatidine (52 Ci/mmol, Perkin-Elmer Life Sciences) was used for binding studies at the other receptor subtypes. Incubation was terminated by rapid filtration on a multimanifold tissue harvester (Brandel, Gaithersburg, Md.) using GF/B filters presoaked in 0.33% polyethyleneimine (w/v) to reduce non-specific binding. Filters were washed 3 times and the radioactivity retained was determined by liquid scintillation counting.
(§4) Binding data were expressed as percent total control binding. Replicates for each point were averaged and plotted against the log of drug concentration. The IC50 (concentration of the compound that produces 50% inhibition of binding) was determined by least squares non-linear regression using GraphPad Prism software (GraphPAD, San Diego, Calif.). Ki was calculated using the Cheng-Prusoff equation (Cheng and Prusoff, 1973).

[2] = target: T2, Human Ganglion (Homo sapiens, UniProt P30926+P32297); assay: Competition binding to receptors in membrane preparations, human ganglion subtype ([3H]-epibatidine)
T2 construct: endogenous in cells
Procedure: as §1, §2, §3, §4

[3] = target: Rat Ganglion (Rattus norvegicus, UniProt P04757+P12392); assay: Competition binding to receptors in membrane preparations, rat ganglion subtype ([3H]-epibatidine)
Procedure: as §3, §4

[4] = target: T3, Human α7 nAChR (Homo sapiens, UniProt P36544); assay: Competition binding to receptors in membrane preparations, human α7 ([3H]-epibatidine)
T3 construct: expressed in transfected cells; host or cells: HEK cells co-expressing RIC3 (from J. Lindstrom, U. Pennsylvania)
Procedure: as §1, §2, §3, §4

Row | Structure (SMILES) | Ki ([1]; read-out: Human α4β2 Ki) | Ki [2] | Ki [3] | Ki ([2]; read-out: Human Ganglion Ki) | Ki [4] | Ki [1]
1 | CN[C@@H](C)C/C=C/c1cncc(O[C@H]2CCN(C(C)=O)C2)c1 | 0.012 µM | – | – | – | – | –
2 | CCC(=O)N1CC[C@H](Oc2cncc(/C=C/C[C@H](C)NC)c2)C1 | 0.0097 µM | 43 µM | 40 µM | – | – | –
3 | CN[C@@H](C)C/C=C/c1cncc(O[C@H]2CCN(C(=O)C3CCOCC3)C2)c1 | 0.013 µM | 100 µM | 51 µM | – | – | –
4 | CN[C@@H](C)C/C=C/c1cncc(O[C@@H]2CCN(C(C)=O)C2)c1 | 0.0026 µM | 41 µM | 24 µM | – | – | –
5 | CCC(=O)N1CC[C@@H](Oc2cncc(/C=C/C[C@H](C)NC)c2)C1 | 0.0019 µM | 19 µM | 88 µM | – | – | –
6 | CN[C@@H](C)C/C=C/c1cncc(O[C@@H]2CCN(C(=O)C3CCOCC3)C2)c1 | 0.0044 µM | 44 µM | – | – | – | –
7 | CCC(=O)N1CC(Oc2cncc(/C=C/C[C@H](C)NC)c2)C1 | 0.0022 µM | – | – | – | – | –
8 | CN[C@@H](C)C/C=C/c1cncc(OC2CN(C(=O)C3CCOCC3)C2)c1 | 0.0048 µM | – | – | – | – | –
9 | CN[C@@H](C)C/C=C/c1cncc(O[C@H]2CCN(C(=O)C3CC3)C2)c1 | 0.014 µM | 20 µM | – | – | – | –
10 | CN[C@@H](C)C/C=C/c1cncc(O[C@H]2CCN(C(=O)COC)C2)c1 | 0.0044 µM | 21 µM | – | – | – | –
11 | CN[C@@H](C)C/C=C/c1cncc(O[C@H]2CCN(C(=O)c3ccco3)C2)c1 | 0.0012 µM | 72 µM | – | – | – | –
12 | CCCOC(=O)N1CC[C@H](Oc2cncc(/C=C/C[C@H](C)NC)c2)C1 | 0.0077 µM | – | – | 25 µM | – | –
13 | CN[C@@H](C)C/C=C/c1cncc(O[C@H]2CCN(C(=O)OCCOC)C2)c1 | 0.053 µM | – | – | 270 µM | – | –
14 | CCNC(=O)N1CC[C@H](Oc2cncc(/C=C/C[C@H](C)NC)c2)C1 | 0.061 µM | 250 µM | – | – | – | –
15 | CN[C@@H](C)C/C=C/c1cncc(O[C@@H]2CCN(C(=O)C3CC3)C2)c1 | 0.0051 µM | 83 µM | – | – | – | –
16 | CN[C@@H](C)C/C=C/c1cncc(O[C@@H]2CCN(C(=O)COC)C2)c1 | 0.0091 µM | 55 µM | – | – | – | –

Row | Structure (SMILES) | Ki ([1]; read-out: Human α4β2 Ki) | Ki [2] | Ki [3] | Ki ([2]; read-out: Human Ganglion Ki) | Ki [4] | Ki [1]
17 | CN[C@@H](C)C/C=C/c1cncc(O[C@@H]2CCN(C(=O)c3ccco3)C2)c1 | 0.0047 µM | 50 µM | – | – | – | –
18 | CCCOC(=O)N1CC[C@@H](Oc2cncc(/C=C/C[C@H](C)NC)c2)C1 | 0.0051 µM | – | – | 37 µM | – | –
19 | CN[C@@H](C)C/C=C/c1cncc(O[C@@H]2CCN(C(=O)OCCOC)C2)c1 | 0.0066 µM | – | – | 48 µM | – | –
20 | CCNC(=O)N1CC[C@@H](Oc2cncc(/C=C/C[C@H](C)NC)c2)C1 | 0.0099 µM | 140 µM | – | – | – | –
21 | CN[C@@H](C)C/C=C/c1cncc(OC2CN(C(=O)COC)C2)c1 | 0.0049 µM | – | – | 42 µM | – | –
22 | CN[C@@H](C)C/C=C/c1cncc(OC2CN(C(=O)c3ccco3)C2)c1 | 0.0028 µM | – | – | 20 µM | – | –
23 | CCCOC(=O)N1CC(Oc2cncc(/C=C/C[C@H](C)NC)c2)C1 | 0.0039 µM | 44 µM | – | – | – | –
24 | CN[C@@H](C)C/C=C/c1cncc(OC2CN(C(=O)OCCOC)C2)c1 | 0.0096 µM | 69 µM | – | – | – | –
25 | CN[C@@H](C)C/C=C/c1cnc(Cl)c(O[C@H]2CCN(C(=O)c3ccc(F)cc3F)C2)c1 | 0.022 µM | – | – | – | 23 µM | –
26 | CN[C@@H](C)C/C=C/c1cncc(O[C@H]2CCN(C(=O)CC(C)(C)C)C2)c1 | – | 12 µM | 21 µM | – | 65 µM | 0.011 µM
27 | CN[C@@H](C)C/C=C/c1cnc(Cl)c(O[C@H]2CCN(C(=O)CCC(F)(F)F)C2)c1 | – | 25 µM | 31 µM | – | 13 µM | 0.0028 µM
28 | CN[C@@H](C)C/C=C/c1cnc(Cl)c(O[C@@H]2CCN(C(=O)C(C)C)C2)c1 | 0.0015 µM | – | – | – | 36 µM | –
29 | CN[C@@H](C)C/C=C/c1cnc(Cl)c(O[C@@H]2CCN(C(=O)C3CCC3)C2)c1 | 0.0015 µM | – | – | – | 45 µM | –
30 | CN[C@@H](C)C/C=C/c1cnc(Cl)c(O[C@@H]2CCN(C(=O)C3CCCC3)C2)c1 | 0.0029 µM | – | – | – | 6.1 µM | –
31 | CN[C@@H](C)C/C=C/c1cnc(Cl)c(O[C@@H]2CCN(C(=O)CC(C)(C)C)C2)c1 | 0.016 µM | – | – | – | 6.5 µM | –
32 | CN[C@@H](C)C/C=C/c1cnc(Cl)c(O[C@@H]2CCN(C(=O)CC3CCCC3)C2)c1 | 0.0075 µM | – | – | – | 30 µM | –
